Assay [1] has as its system H358 human non-small cell lung cancer cells. In words: Inhibition test of in vitro cell level phosphorylation activity (pERK). The format is cell-based. To be noted: NCI-H358, ERK phosphorylation inhibition, compound 1 h. The protocol:
Test Example 1 Inhibition Test of In Vitro Cell Level Phosphorylation Activity
1.2 Test Method for In Vitro Cell Level Phosphorylation Activity
A dish of H358 human non-small cell lung cancer cells (Nanjing Cobioer Biosciences Co., Ltd.) in logarithmic growth phase and good cell condition were added to a centrifuge tube and centrifuged at 1000 rpm for 5 min in a low speed benchtop centrifuge. The supernatant was discarded, and 5 mL of a plating medium containing 5% FBS was added using a pipette for cell resuspension. The cell suspension was loaded on a cell counter for counting, and diluted with the plating medium to adjust the cell density to 1.5×10^5 cells/mL. The cells were seeded on a black clear-bottom 384-well plate at 40 μL/well using a multi-channel pipette, and cultured overnight in a cell incubator at 37° C., 5% CO2 and saturated humidity. […] The medium was discarded after 1 h, 40 μL, of 4% polyoxymethylene was added to each well, and the plate was incubated for 20 min at room temperature and washed with PBS. […] 20 μL of 5% BSA blocking buffer was added to each well, and the blocking buffer was discarded after the plate was blocked for 1 h at room temperature. 20 μL of the primary antibody mixed solution was added to each well, wherein Rabbit anti-pERK was diluted at 1:1000 (final concentration) and mouse anti-GAPDH was diluted at 1:5000 (final concentration), and the plate was incubated overnight at 4° C. and washed with PBST. 20 μL of the secondary antibody mixed solution was added to each well, wherein goat anti rabbit 800 and goat anti mouse 647 were both diluted at 1:1000 (final concentration), and the plate was incubated in the dark at room temperature for 45 min and washed with PBST.

Another assay relates to K562 cells. In words: Assay for proliferation inhibitory activity of K562 cells. Type of assay: cell-based. To be noted: Homo sapiens, 72 h, CCK-8, read-out: K562 cell proliferation inhibition IC50. The protocol: Test Example 4 Assay for Proliferation Inhibitory Activity of K562 Cells
The K562 cell line can be purchased from the American Type Culture Collection (ATCC).
The K562 cells in a good growth state were added to a centrifuge tube with the cell density adjusted to 3×10^4/mL, and seeded on a 96-well plate (100 μL/well). The cells were cultured overnight in a cell incubator, the compound was loaded using a nanoliter pipettor to allow the final compound concentration to be 10000 nM to 4.6 nM, 2 replicate wells were set and control was set.

For a further assay, the target named is T1, KRAS-G12C/SOS1 (Homo sapiens, UniProt Q07889).
T1 sequence (Q07889 564-1049): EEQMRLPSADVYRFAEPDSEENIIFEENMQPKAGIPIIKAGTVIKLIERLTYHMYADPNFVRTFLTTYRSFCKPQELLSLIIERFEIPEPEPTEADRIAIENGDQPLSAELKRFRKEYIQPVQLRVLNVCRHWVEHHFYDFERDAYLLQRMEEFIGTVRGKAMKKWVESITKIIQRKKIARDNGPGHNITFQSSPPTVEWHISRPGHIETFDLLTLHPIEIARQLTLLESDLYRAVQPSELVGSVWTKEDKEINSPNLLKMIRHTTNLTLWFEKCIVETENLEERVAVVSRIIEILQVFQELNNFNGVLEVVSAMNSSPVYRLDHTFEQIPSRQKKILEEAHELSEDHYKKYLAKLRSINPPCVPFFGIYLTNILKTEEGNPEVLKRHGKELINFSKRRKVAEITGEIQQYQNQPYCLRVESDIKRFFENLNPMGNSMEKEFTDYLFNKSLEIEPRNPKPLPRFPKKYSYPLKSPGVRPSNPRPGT
Nature of the assay: biochemical.

For a further assay, the target named is T2, SOS1cat / KRAS G12C (Homo sapiens, UniProt Q07889).
T2 sequence (Q07889 564-1049): T1 sequence (Q07889 564-1049)
In words: Guanine nucleotide exchange test (HTRF). The format is biochemical. The conditions noted are these: SOS1cat-mediated loading of EDA-GTP-DY-647P1 on His-KRAS G12C, 20° C.; read-out: Nucleotide conversion of HTRF IC50. As to the method: Test Example 2 Guanine Nucleotide Exchange Test
This test quantitatively investigates the ability of SOS to mediate KRAS activation. KRAS G12C with a His tag was added to the system, anti-His antibody labeled with lanthanide Eu was combined with the system, then auxiliary protein SOS1cat and GTP analogue EDA-GTP-DY-647P1 with fluorophore were added thereto, the GTP analogue with fluorophore was loaded on KRAS G12C with the assistance of the auxiliary protein, and then energy resonance transfer occurred between Anti-6HS-Cryptate (FRET donor) and EDA-GTP-DY-647P1 (FRET acceptor).
However, after pretreatment with SOS1 inhibitor compounds, the ability of SOS1 to bind and mediate KRAS activation was weakened, and the ability of FRET between donor and acceptor was weakened.
Test buffer was prepared with the following components: HEPES pH 7.4: 20 mM; NaCl: 150 mM; MgCl2: 0.5 mM; DTT: 2 mM; BSA: 0.05%; and Igepal: 0.0025%.
KRAS G12C working solution, SOS1cat working solution and blank control solution were prepared with the test buffers; wherein the KRAS G12C working solution contained 100 nM His-KRAS G12C and 2 nM […]; the SOS1cat working solution contained 20 nM SOS1cat and 200 nM EDA-GTP-DY-647P1; and the blank control solution contained 100 nM EDA-GTP-DY-647P1.
The whole test procedures were completed at 20° C.
(In general: TR-FRET usually uses a lanthanide donor and a delayed reading to cut background.)

SMILES strings stand for the structures.

`COc1cc2nc(C)nc(N[C@H](C)c3cccc(C(F)F)c3C)c2cc1P1(=O)CCN(C(C)=O)CC1` [Example 12]: the EC50 (as a rule, the concentration that produces a half-maximal response) in assay [1] came to 103 nM.
For `COc1cc2nc(C)nc(N[C@H](C)c3cccc(C(F)F)c3C)c2cc1P1(=O)CCN(C(=O)C2CC2)CC1` [Example 14], in assay [1], a half-maximal response (EC50) required 108 nM.
The same measure, in the same setting: the result for `COc1cc2nc(C)nc(N[C@H](C)c3cccc(C(C)(F)F)c3F)c2cc1P1(=O)CCN(C(C)=O)CC1` [Example 15] reads 148 nM; that for `COc1cc2nc(C)nc(N[C@H](C)c3cccc(C(C)(F)F)c3F)c2cc1P1(=O)CCN(C(=O)C2CC2)CC1` [Example 17], 82 nM; that for `COc1cc2nc(C)nc(N[C@H](C)c3cc(N)cc(C(F)(F)F)c3C)c2cc1P1(=O)CCN(C(C)=O)CC1` [Example 18], 71 nM.
With `Cc1nc(N[C@H](C)c2cccc(C(F)F)c2F)c2cc(P3(=O)CCN(S(C)(=O)=O)CC3)ncc2n1` [Example 20], the values for the IC50 with K562 cells, against KRAS-G12C/SOS1 and on SOS1cat / KRAS G12C were 292 nM, 78 nM and 482 nM, respectively.
Taken in the same sequence, the figures for `Cc1nc(N[C@H](C)c2cccc(C(F)F)c2F)c2cc(P3(=O)CCN(S(=O)(=O)C4CC4)CC3)ncc2n1` [Example 21] were 187 nM, 58 nM and 481 nM.
On to `Cc1nc(N[C@H](C)c2cccc(C(F)F)c2F)c2cc(P3(=O)CCN(S(C)(=O)=O)CC3)ccc2n1` [Example 27], for which the IC50 in the assay on K562 cells worked out at 469 nM; against KRAS-G12C/SOS1, 61 nM; at SOS1cat / KRAS G12C, 542 nM.
The corresponding values for `Cc1nc(N[C@H](C)c2cccc(C(F)(F)F)c2F)c2cc(P3(=O)CCCCC3)ncc2n1` [Example 42] are 562 nM, 81 nM and 572 nM.
Taken in the same sequence, the figures for `Cc1nc(N[C@H](C)c2cccc(C(F)(F)F)c2F)c2cc(P3(=O)CCCC3)ncc2n1` [Example 43] were 1070 nM, 215 nM and 717 nM.
Turning to `Cc1nc(N[C@H](C)c2cccc(C(C)(F)F)c2F)c2cc(P3(=O)CCN(C(=O)C4CCC4)CC3)ncc2n1` [Example 52], the results for the IC50 in the assay on K562 cells and at SOS1cat / KRAS G12C were 95 nM and 455 nM, respectively.
Taken in the same sequence, the figures for `COC(=O)N1CCP(=O)(c2cc3c(N[C@H](C)c4cccc(C(F)F)c4F)nc(C)nc3cn2)CC1` [Example 53] were 93 nM and 504 nM.
Taken in the same sequence, the figures for `CNCc1ccccc1-c1csc([C@@H](C)Nc2nc(C)nc3cnc(P4(=O)CCN(C(=O)C5CC5)CC4)cc23)c1` [Example 54] were 84 nM and 486 nM.
As for `Cc1nc(N[C@H](C)c2cc(N)cc(C(F)(F)F)c2C)c2cc(P3(=O)CCN(C(=O)C(C)C)CC3)ncc2n1` [Example 58], the figures for the IC50 in the assay on K562 cells and at SOS1cat / KRAS G12C were 31 nM and 433 nM, respectively.
Consider `Cc1nc(N[C@H](C)c2cc(N)cc(C(F)(F)F)c2C)c2cc(P3(=O)CCN(C(=O)C4(F)CC4)CC3)ncc2n1` [Example 59], for which the IC50 in the assay on K562 cells came out at 21 nM; on SOS1cat / KRAS G12C, 448 nM.
Take `Cc1nc(N[C@H](C)c2cc(N)cc(C(F)(F)F)c2C)c2cc(P3(=O)CCN(C(=O)C(C)(C)F)CC3)ncc2n1` [Example 60]: the IC50 came to 30 nM with K562 cells and 433 nM on SOS1cat / KRAS G12C.
For the compound `COc1cc2nc(C)nc(N[C@H](C)c3cc(N)cc(C(F)F)c3)c2cc1P1(=O)CCCCC1` [Example 65], the IC50 in the assay with K562 cells was 433 nM; against KRAS-G12C/SOS1, 56 nM; at SOS1cat / KRAS G12C, 482 nM.

Source of the values: patent publication US12565511B2, “SOS1 inhibitor containing phosphorus” (Chia Tai Tianqing Pharmaceutical Group Co., Ltd., priority 2020, dated 2026).
